Like-named read-outs stand apart in the source and are kept apart here.

Series [1] deals with AncFT. The series can be described thus: anaerobic fluorescence titration. On the set-up: species or system synthetic construct. Conditions: 100 mM potassium phosphate pH 7.5, 30 °C.
In series [2] the target is T1, RLuc8 (Renilla reniformis, UniProt P27652, A143M/A55T/C124A/K136R/M185V/M253L/S130A/S287L). Briefly: biochemical.
In series [3] the target is AncFT. Briefly: anaerobic fluorescence titration. Conditions: 100 mM potassium phosphate pH 7.5, 30 °C. The arrangement: species or system synthetic construct. This is another data set of the same source.
Series [4] relates to AncFT. The series can be described thus: luminescence progress curves, global numerical fit. Conditions: O2 co-substrate; 100 mM phosphate pH 7.5, 37 °C. The series is classed as biochemical, synthetic construct.
In series [5] the target is T1, RLuc8. Briefly: biochemical. This is another data set of the same source.
The target in series [6] is AncFT. The series can be described thus: luminescence progress curves, global numerical fit. It counts as biochemical, synthetic construct. Conditions: competitive versus coelenterazine; 100 mM phosphate pH 7.5, 37 °C.
For series [7], the target named is T1, RLuc8. The series can be described thus: biochemical. This is another data set of the same source.
Substrate in the series “purified protein”: Oc1ccc(Cc2nc3c(Cc4ccccc4)nc(-c4ccc(O)cc4)cn3c2O)cc1
The series can be described thus: purified protein. The note with it: O2 co-substrate, 100 mM phosphate pH 7.5, 37 °C.

Consider `O=C(Cc1ccc(O)cc1)Nc1ncc(-c2ccc(O)cc2)nc1Cc1ccccc1` [CEI, coelenteramide], for which the Kd on AncFT [1] came to 16 ± 2 µM; on RLuc8 [2] it was 22 ± 2 µM.
As for `Oc1ccc(Cc2nc3c(Cc4ccccc4)nc(-c4ccc(O)cc4)cn3c2O)cc1` [CTZ, 2-(p-hydroxybenzyl)-6-(p-hydroxyphenyl)-8-benzylimidazo [1,2-a]pyrazine-3-(7H)-one], the Kd at AncFT [3] came to 12 ± 5 µM; at RLuc8 [5], 37 ± 15 µM. The Michaelis-Menten constant (Km) in the series with AncFT [4] stood at 42 nM.
With `O=c1n(Cc2ccc(O)cc2)nc2c(Cc3ccccc3)nc(-c3ccc(O)cc3)cn12` [azaCTZ, 8-Benzyl-2-(4-hydroxybenzyl)-6-(4-hydroxyphenyl)-[1,2,4]triazolo[4,3-a]pyrazin-3(2H)-one], the Ki turned out to be 92 ± 2 nM on AncFT [6] and 16.1 µM on RLuc8 [7].

B1: RLuc8 (Renilla reniformis; A143M/A55T/C124A/K136R/M185V/M253L/S130A/S287L) (protein)
chain: MTSKVYDPEQRKRMITGPQWWARCKQMNVLDSFINYYDSEKHAENAVIFLHGNATSSYLWRHVVPHIEPVARCIIPDLIGMGKSGKSGNGSYRLLDHYKYLTAWFELLNLPKKIIFVGHDWGAALAFHYAYEHQDRIKAIVHMESVVDVIESWDEWPDIEEDIALIKSEEGEKMVLENNFFVETVLPSKIMRKLEPEEFAAYLEPFKEKGEVRRPTLSWPREIPLVKGGKPDVVQIVRNYNAYLRASDDLPKLFIESDPGFFSNAIVEGAKKFPNTEFVKVKGLHFLQEDAPDEMGKYIKSFVERVLKNEQ
Turning to B1, the Km in “purified protein” came out at 1.66 µM.

The record behind these values is doi:10.1101/2022.02.09.479090v1 (biorxiv, 2022).
